Test results: patent US20250041278A1, “TLR8 AGONIST FOR MODULATING IMMUNE RESPONSE” (The Children's Medical Center Corporation, priority 2021, published 2025)

Test system: human elderly PBMCs
Experiment: Screen of 310 molecules for TNF production by human elderly PBMCs
Type: cell-based
Conditions: elderly PBMCs of 4 donors, 10% autologous plasma
Excerpt: FIGS. 1A-1D. Discovery of PVP-179 in a human PBMC high-throughput screen. FIG. 1A: A graphical overview depicting screen approach. From a high-throughput screen previously conducted, 310 molecules were identified to be activators of either THP-1 cells (monocyte cell line) or primary human adult peripheral blood mononuclear cells (PBMCs). These 310 molecules were assembled into a stimulation plate and then applied to the PBMCs of 4 elderly donors (cultured with 10% autologous plasma). […] Z scores were averaged across all four elderly donors. The Z score and chemical structure for PVP-179 are indicated. FIG. 1C: Human adult or elderly PBMCs (cultured with 10% autologous plasma) were stimulated with PVP-179 in a two-point concentration titration manner. After 18 hours of incubation, supernatant was processed for ELISA-based measurement of TNF production. N=4 donors. FIG. 1D: As in FIG. 1C, the supernatants were collected, and 14 cytokines were measured by multiplex assay. […] N=4 donors each.
In a previous high throughput screen (HTS), a number of hit molecules were identified as potentially activating human leukocytes. […] A separate pilot screen of 9,000 of the molecules for TNF-inducing activity in adult human peripheral blood mononuclear cells (PBMCs) subsequently identified 133 molecules. […]

CCCCn1c(/N=C/c2nc3ccccc3n2C)nc2ccccc21 [PVP-179]
TNF production, screen hit call: robust TNF-inducing hit
